Data taken from patent US10092546B2, “Imidazole derivatives” (Hoffman-La Roche Inc., priority 2015, dated 2018).

target: T1, human EAAT3 (Homo sapiens, UniProt P43005); assay: FLIPR Membrane Potential (FMP) assay, antagonist potency at human EAAT3; assay type: cell-based; details: HEK-293 cells stably expressing human EAAT3; L-glutamate as agonist at EC80; antagonist applied 15 min before; Kb by Cheng-Prusoff from IC50
T1 construct: expressed in transfected cells
T1 sequence (P43005 1-524): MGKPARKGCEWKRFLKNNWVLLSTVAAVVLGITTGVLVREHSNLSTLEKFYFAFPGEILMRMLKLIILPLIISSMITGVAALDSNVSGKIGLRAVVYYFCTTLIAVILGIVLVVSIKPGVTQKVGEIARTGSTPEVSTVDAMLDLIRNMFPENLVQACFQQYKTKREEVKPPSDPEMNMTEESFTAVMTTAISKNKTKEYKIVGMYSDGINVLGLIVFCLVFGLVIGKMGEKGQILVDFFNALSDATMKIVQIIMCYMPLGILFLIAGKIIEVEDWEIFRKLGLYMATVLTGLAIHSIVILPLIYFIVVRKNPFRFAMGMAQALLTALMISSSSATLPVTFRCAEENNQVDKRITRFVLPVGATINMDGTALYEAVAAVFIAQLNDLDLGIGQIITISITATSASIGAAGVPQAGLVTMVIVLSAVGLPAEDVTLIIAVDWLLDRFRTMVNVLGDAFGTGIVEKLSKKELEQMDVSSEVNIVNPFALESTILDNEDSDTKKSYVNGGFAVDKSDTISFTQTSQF
Protocol: The FLIPR Membrane Potential (FMP) Assay
HEK-293 cells stably expressing human EAAT3 were seeded at 55 000 cells/well in growth medium (DMEM glutamate free (Invitrogen 11960-044), 1% Pen Strep (10 ml/l GIBCO BRL No 15140-023), 10% FCS non dialysed heat inactivated, 5 mg/l puromycin) in poly-D-lysine treated 96-well black microtiter plates with clear-bottom. After 24 h, the growth medium was removed and 100 μl/well of Krebs buffer (140 mM NaCl, 4.7 mM KCl, 2.5 mM CaCl2, 1.2 mM MgCl2, 11 mM HEPES, 10 mM D-glucose, pH=7.4) added. The cells were then loaded by adding 100 μl/well FMP assay dye (FLIPR Membrane Potential assay reagent, Molecular Devices). The 96-well plates were then incubated at 37° C. for 1 h. The depolarization of the cells will cause more dye to enter in the cells, where it will bind to intracellular proteins and lipids and cause an increase in the fluorescence signal. Antagonist potency at human EAAT3 was determined by using L-glutamate as agonist at a concentration which gives 80% of the maximum response. The antagonists were applied 15 min before the application of the agonist L-glutamate. The assays were performed at room temperature and measurements done by using a Fluorometric Imaging Plate Reader (FLIPR, Molecular Devices) and filter #2. Responses were measured as peak increase in fluorescence minus basal (i.e. fluorescence without addition of L-glutamate). Kb was determined using the Cheng-Prusoff equation Kb=IC50/[1+(A/EC50)], where IC50 is the concentration of the antagonist producing 50% inhibition, A is the concentration of the agonist against which the IC50 is being determined (at EC80) and EC50 is the concentration of the agonist producing 50% […].

| Compound | Kb |
| --- | --- |
| CC(C)(O)c1nccn1-c1cc(C(=O)NC(C)(C)C(F)(F)F)cc(-c2ccc(Cl)cc2)n1 [Example 36, 2-(4-Chlorophenyl)-6-[2-(2-hydroxypropan-2-yl)-imidazol-1-yl]-N-(1,1,1-trifluoro-2-methylpropan-2-yl)-pyridine-4-carboxamide] | 78 nM |
| CC(C)(C)NC(=O)c1cc(-c2ccc(Cl)cc2)nc(-n2ccnc2C(C)(C)O)c1 [Example 33, N-tert-Butyl-2-(4-chlorophenyl)-6-[2-(2-hydroxypropan-2-yl)-imidazol-1-yl]-pyridine-4-carboxamide] | 170 nM |
| CC(C)(C)NC(=O)c1cc(-c2ccc(Cl)cc2)nc(-n2ccnc2CO)c1 [Example 22, N-tert-Butyl-2-(4-chlorophenyl)-6-[2-(hydroxymethyl)-imidazol-1-yl]-pyridine-4-carboxamide] | 500 nM |
| Cc1nccn1-c1cc(C(=O)NC(C)(C)C)cc(-c2ccc(C(F)(F)F)cc2)n1 [Example 21, N-tert-Butyl-2-(2-methyl-imidazol-1-yl)-6-[4-(trifluoromethyl)-phenyl]-pyridine-4-carboxamide] | 650 nM |
| CC(C)(C)NC(=O)c1cc(-c2ccc(Cl)cc2)nc(-n2ccnc2C2CC2)c1 [Example 5, N-tert-Butyl-2-(4-chlorophenyl)-6-(2-cyclopropyl-imidazol-1-yl)-pyridine-4-carboxamide] | 120 nM |
| CC(C)(NC(=O)c1cc(-c2ccc(Cl)cc2)nc(-n2ccnc2C2CC2)c1)C1CC1 [Example 16, 2-(4-Chlorophenyl)-6-(2-cyclopropyl-imidazol-1-yl)-N-(2-cyclopropyl-propan-2-yl)-pyridine-4-carboxamide] | 300 nM |
| CC(C)(C#N)NC(=O)c1cc(-c2ccc(Cl)cc2)nc(-n2ccnc2C(C)(C)C)c1 [Example 37, 2-(2-tert-Butylimidazol-1-yl)-6-(4-chlorophenyl)-N-(2-cyanopropan-2-yl)-pyridine-4-carboxamide] | 96 nM |
| CC(C)(C)NC(=O)c1cc(-c2ccc(C(F)(F)F)cc2)nc(-n2ccnc2C(C)(C)C)c1 [Example 19, N-tert-Butyl-2-(2-tert-butylimidazol-1-yl)-6-[4-(trifluoromethyl)-phenyl]-pyridine-4-carboxamide] | 180 nM |
| CC(C)c1nccn1-c1cc(C(=O)NC(C)(C)CO)cc(-c2ccc(Cl)cc2)n1 [Example 30, 2-(4-Chlorophenyl)-N-(1-hydroxy-2-methylpropan-2-yl)-6-(2-propan-2-yl-imidazol-1-yl)-pyridine-4-carboxamide] | 190 nM |
| CC(C)c1nccn1-c1cc(C(=O)NC(C)(C)C)cc(-c2ccc(C(F)(F)F)cc2)n1 [Example 3, N-tert-Butyl-2-(2-propan-2-yl-imidazol-1-yl)-6-[4-(trifluoromethyl)-phenyl]-pyridine-4-carboxamide] | 460 nM |
| CC(C)c1nccn1-c1cc(C(=O)NC2(C)CCS(=O)(=O)C2)cc(-c2ccc(F)cc2)n1 (racemic) [Example 38, (RS)-2-(4-Fluorophenyl)-N-(3-methyl-1,1-dioxothiolan-3-yl)-6-(2-propan-2-ylimidazol-1-yl)-pyridine-4-carboxamide] | 140 nM |
| CC(C)(C)NC(=O)c1cc(-c2ccc(F)cc2)nc(-n2ccnc2C2CC2)c1 [Example 4, N-tert-Butyl-2-(2-cyclopropyl-imidazol-1-yl)-6-(4-fluorophenyl)-pyridine-4-carboxamide] | 160 nM |
| CC(C)(C)NC(=O)c1cc(-c2ccc(Cl)cc2)nc(-n2ccnc2C(C)(C)C)c1 [Example 12, N-tert-Butyl-2-(2-tert-butyl-imidazol-1-yl)-6-(4-chlorophenyl)-pyridine-4-carboxamide] | 63 nM |
| CC(C)(C)NC(=O)c1cc(-c2ccc(F)cc2)nc(-n2ccnc2)c1 [Example 6, N-tert-Butyl-2-(4-fluorophenyl)-6-imidazol-1-yl-pyridine-4-carboxamide] | 1000 nM |
| Cc1nccn1-c1cc(C(=O)NC(C)(C)C)cc(-c2ccc(Cl)cc2)n1 [Example 10, N-tert-Butyl-2-(4-chlorophenyl)-6-(2-methyl-imidazol-1-yl)-pyridine-4-carboxamide] | 300 nM |
| CCc1nccn1-c1cc(C(=O)NC(C)(C)C)cc(-c2ccc(F)cc2)n1 [Example 8, N-tert-Butyl-2-(2-ethyl-imidazol-1-yl)-6-(4-fluorophenyl)-pyridine-4-carboxamide] | 210 nM |
| CC(C)(C)NC(=O)c1cc(-c2ccc(Cl)cc2)nc(-n2ccnc2)c1 [Example 9, N-tert-Butyl-2-(4-chlorophenyl)-6-imidazol-1-yl-pyridine-4-carboxamide] | 600 nM |
| CC(C)c1nccn1-c1cc(C(=O)NC(C)(C)C2CC2)cc(-c2ccc(Cl)cc2)n1 [Example 15, 2-(4-Chlorophenyl)-N-(2-cyclopropylpropan-2-yl)-6-(2-propan-2-yl-imidazol-1-yl)-pyridine-4-carboxamide] | 150 nM |
| CC(C)(C)NC(=O)c1cc(-c2ccc(C(F)(F)F)cc2)nc(-n2ccnc2C2CC2)c1 [Example 20, N-tert-Butyl-2-(2-cyclopropyl-imidazol-1-yl)-6-[4-(trifluoromethyl)-phenyl]-pyridine-4-carboxamide] | 290 nM |
| CC(C)c1nccn1-c1cc(C(=O)NC(C)(C)C(F)(F)F)cc(-c2ccc(Cl)cc2)n1 [Example 23, 2-(4-Chlorophenyl)-6-(2-propan-2-yl-imidazol-1-yl)-N-(1,1,1-trifluoro-2-methylpropan-2-yl)-pyridine-4-carboxamide] | 320 nM |
| CC(C)(C)NC(=O)c1cc(-c2ccc(F)cc2)nc(-n2ccnc2C(C)(C)C)c1 [Example 13, N-tert-Butyl-2-(2-tert-butyl-imidazol-1-yl)-6-(4-fluorophenyl)-pyridine-4-carboxamide] | 58 nM |
| CC(C)(C)NC(=O)c1cc(-c2ccc(F)cc2)nc(-n2ccnc2C(C)(C)O)c1 [Example 18, N-tert-Butyl-2-(4-fluorophenyl)-6-[2-(2-hydroxypropan-2-yl)-imidazol-1-yl]-pyridine-4-carboxamide] | 100 nM |
| Cc1nccn1-c1cc(C(=O)NC(C)(C)C)cc(-c2ccc(F)cc2)n1 [Example 7, N-tert-Butyl-2-(4-fluorophenyl)-6-(2-methyl-imidazol-1-yl)-pyridine-4-carboxamide] | 430 nM |
| CCc1nccn1-c1cc(C(=O)NC(C)(C)C)cc(-c2ccc(Cl)cc2)n1 [Example 11, N-tert-Butyl-2-(4-chlorophenyl)-6-(2-ethyl-imidazol-1-yl)-pyridine-4-carboxamide] | 250 nM |
| CC(C)(C)NC(=O)c1cc(-c2ccc(C(F)(F)F)cc2)nc(-n2ccnc2C(C)(C)O)c1 [Example 34, N-tert-Butyl-2-[2-(2-hydroxypropan-2-yl)-imidazol-1-yl]-6-[4-(trifluoromethyl)-phenyl]-pyridine-4-carboxamide] | 240 nM |
| CC(C)(O)c1nccn1-c1cc(C(=O)NC(C)(C)C2CC2)cc(-c2ccc(Cl)cc2)n1 [Example 35, 2-(4-Chlorophenyl)-N-(2-cyclopropylpropan-2-yl)-6-[2-(2-hydroxypropan-2-yl)-imidazol-1-yl]-pyridine-4-carboxamide] | 150 nM |
| CC(C)(NC(=O)c1cc(-c2ccc(Cl)cc2)nc(-n2ccnc2C2CC2)c1)C(F)(F)F [Example 24, 2-(4-Chlorophenyl)-6-(2-cyclopropyl-imidazol-1-yl)-N-(1,1,1-trifluoro-2-methylpropan-2-yl)-pyridine-4-carboxamide] | 510 nM |
| Cc1cc(-c2cc(C(=O)NC(C)(C)C)cc(-n3ccnc3C(C)(C)C)n2)ccc1F [Example 29, N-tert-Butyl-2-(2-tert-butyl-imidazol-1-yl)-6-(4-fluoro-3-methyl-phenyl)-pyridine-4-carboxamide] | 150 nM |
| CCC(C)(C)NC(=O)c1cc(-c2ccc(F)cc2)nc(-n2ccnc2C(C)C)c1 [Example 39, 2-(4-Fluorophenyl)-N-(2-methylbutan-2-yl)-6-(2-propan-2-ylimidazol-1-yl)-pyridine-4-carboxamide] | 69 nM |
| CC(C)(C)c1nccn1-c1cc(C(=O)NC(C)(C)C2CC2)cc(-c2ccc(Cl)cc2)n1 [Example 17, 2-(2-tert-Butylimidazol-1-yl)-6-(4-chlorophenyl)-N-(2-cyclopropyl-propan-2-yl)-pyridine-4-carboxamide] | 280 nM |
